# Test results reported in PMC9503459, “Antifungal Activity, Structural Stability, and Immunomodulatory Effects on Human Immune Cells of Defensin from the Lentil Lens culinaris” (Membranes, 2022).
# “And” between values parts separate entries of the source, which are not always exact repeats. Identical values can stand only once. No end group written: not given here.
# Columns and labels:
# [1] = test system: pro-inflammatory macrophages (Mφ1) from THP-1 cells; assay: Cytokine response by multiplex xMAP, pro-inflammatory macrophages; type: cell-based, human; conditions: Mφ1 macrophages (THP-1), 2 µM, 24 h
# Experimental: Colorectal adenocarcinoma Caco-2 cell line (ATCC HTB-37) was cultured in complete DMEM/F12 (1:1) medium containing 10% fetal bovine serum (FBS, Gibco) and 1X antibiotic-antimycotic solution (1XAAS, Invitrogen, Waltham, MA, USA). The acute monocytic leukemia THP-1 line (ATCC TIB-202) was cultured in complete RPMI-1640 medium, containing 10% FBS, 1XAAS, and […]. THP-1 cells were differentiated into pro-inflammatory macrophages (Mφ1) with phorbol 12-myristate 13-acetate (Sigma-Aldrich) for 24 h and subsequently polarized with lipopolysaccharide from E. coli (Sigma-Aldrich) and rhIFN-γ (Sigma-Aldrich) for another 48 h according to previously reported protocol. All cells were cultured in a humidified CO2 incubator (5% CO2, 37 °C). Primary peripheral blood mononuclear cells (PBMCs) collected from a healthy donor were purchased from American Type Culture Collection (ATCC PCS-800-011). CD4^+ T-helper and CD8^+ T cytotoxic cells were isolated from PBMCs by magnetic separation with mouse anti-human CD4-PE (clone 13B8.2, Beckman Coulter Diagnostics, Pasadena, CA, USA) and CD8-PE (clone REA734, Miltenyi Biotec, Bergisch Gladbach, Germany), Anti-PE MicroBeads (Miltenyi Biotec), and LS Separation Columns (Miltenyi Biotec). Isolated CD4^+ and CD8^+ cells were expanded separately with Dynabeads™ Human T-Expander CD3/CD28 (Gibco, Waltham, MA, USA) in RPMI-1640 supplemented with 10% FBS, 1XAAS and 100 U/mL rh-IL-2 (Gibco). Regulatory CD4^+ FoxP3^+ T cells (Tregs) were isolated from PBMCs by magnetic separation with CD4^+CD25^+ Regulatory T Cell Isolation Kit, human (Miltenyi Biotec). Primary CD14^+ blood monocytes were isolated from PBMCs by adherence according to standard technique. Monocyte-derived mature dendritic cells (moDCs) were obtained from CD14^+ blood monocytes according to the previously reported protocol. Briefly, blood monocytes were incubated in complete RPMI-1640 medium, containing 10% FBS, 1XAAS, 800 U/mL rhGM-CSF (Sci-Store, Russia, Moscow) and 500 U/mL rhIL-4 (Sci-Store) for 3 days. Fresh complete RPMI-1640 medium with rhGM-CSF and rhIL-4 was added to the culture on day 3. On day 5, fresh complete RPMI-1640 containing 100 U/mL rhTNF-α (Sigma) as well as 800 U/mL rhGM-CSF and 500 U/mL rhIL-4 was added and the culture was incubated for another 4 days until full maturation.
# Caco-2 cells were seeded into the wells of a 48-well plate, coated with 0.1% bovine collagen (Sigma-Aldrich) for 24 h, 3 weeks before the experiment with complete DMEM/F12 (1:1) medium renewal every 2–3 days. Monocytes, moDCs, CD4^+ T-helper and CD8^+ T cytotoxic cells, Mφ1, and Regulatory CD4^+ FoxP3^+ T cells were seeded into the wells of 48-well plates in the complete RPMI-1640 medium supplemented with 10% Human AB serum (HABS, Capricorn Scientific, Ebsdorfergrund, Germany) and 1XAAS 24 h prior to the experiment; medium in Caco-2-containing wells was also replaced with the same medium. After 24 h, half of the medium in each well was replaced by fresh complete RPMI-1640 medium with 10% HABS, supplemented with 4 µM of Lc-def for the sample wells or fresh medium alone for the control wells. Cell cultures were kept in CO2-incubator (5% CO2, 37 °C) for another 24 h. Culture supernatants were collected 24 h later and stored at −70 °C degrees less than one month prior to the analytes assessment. […]
# [2] = test system: phytopathogenic filamentous fungi including Aspergillus niger; conditions: some, but not all, tested fungi including Aspergillus niger; cited from earlier work
substance,measurement,setting,value
"Lc-def: defensin from lentil Lens culinaris seeds (UniProt:B3F051), recombinant, overexpressed in Escherichia coli (KTCENLSDSFKGPCIPDGNCNKHCKEKEHLLSGRCRDDFRCWCTRNC; disulfide (positions not given here); ends not checked; also: disulfide bonds present, pairing not given here; UniProt B3F051 28-74, looked up)",EGF,[1],2.32 pg/mL
same,Eotaxin,[1],<3.23↓ pg/ml
same,FGF-2,[1],16.21 pg/mL
same,FLT-3L,[1],2.27 pg/mL
same,Fractalkine,[1],<23.19↓ pg/ml
same,G-CSF,[1],1150 pg/mL
same,GM-CSF,[1],74.32 pg/mL
same,GROa,[1],545.96 pg/mL
same,IFNa2,[1],7.77 pg/mL
same,IFNg,[1],<1.99↓ pg/ml
same,IL-1RA,[1],101.1 pg/mL
same,IL-1a,[1],38.93 pg/mL
same,IL-1b,[1],471.74 pg/mL
same,IL-2,[1],<0.31↓ pg/ml
same,IL-3,[1],<0.48↓ pg/ml
same,IL-4,[1],0.92 pg/mL
same,IL-5,[1],<0.24↓ pg/ml
same,IL-6,[1],1022 pg/mL
same,IL-7,[1],<0.33↓ pg/ml
same,IL-8,[1],>17785↑ pg/ml
same,IL-9,[1],<1.05↓ pg/ml
same,IL-10,[1],41.17 pg/mL
same,IL-12 (p40),[1],<3.02↓ pg/ml
same,IL-12 (p70),[1],4.54 pg/mL
same,IL-13,[1],15.11 pg/mL
same,IL-15,[1],<1.45↓ pg/ml
same,IL-17A,[1],<1.55↓ pg/ml
same,IL-17E/IL-25,[1],<20.59↓ pg/ml
same,IL-17F,[1],<16.96↓ pg/ml
same,IL-18,[1],6.51 pg/mL
same,IL-22,[1],28.78 pg/mL
same,IL-27,[1],40.89 pg/mL
same,IP-10,[1],<1.56↓ pg/ml
same,M-GSF,[1],<23.75↓ pg/ml
same,MCP-1,[1],259 pg/mL and 259.04 pg/mL
same,MCP-3,[1],8.66 pg/mL
same,MDC,[1],<0.35↓ pg/ml
same,MIG,[1],124 pg/mL and 124.97 pg/mL
same,MIP-1a,[1],2680 pg/mL
same,MIP-1b,[1],413 pg/mL and 413.11 pg/mL
same,PDGF-AA,[1],4181 pg/mL
same,PDGF-AB/BB,[1],<9.75↓ pg/ml
same,RANTES,[1],23.61 pg/mL
same,TGF-a,[1],0.89 pg/mL
same,TNFa,[1],1942 pg/mL
same,TNFb,[1],1.95 pg/mL
same,VEGFa,[1],48.67 pg/mL
same,sCD40L,[1],14.8 pg/mL
same,activity against phytopathogenic filamentous fungi,[2],active
